Usually melting point stands for the temperature of the solid-liquid transition. Take `Cc1noc(-c2cccc(NC(=O)N[C@@H]3c4cc(C#N)ccc4OC(C)(C)[C@H]3O)c2)n1`: the melting point lay within 157 to 161 °C.

Regarding `O=c1[nH]cnc(N=Nc2ccccc2)c1O`, the melting point lay in the range of 244 to 245 °C. In turn, `COc1ccc(-c2cccc(C(N)=O)c2)cc1OC1CCCC1` showed a melting point of 133 to 135 °C. `Cc1c(C#N)cc(C(C)(C)C)c(O)c1C(=O)Nc1ccc(S(=O)c2ccc(Br)cc2)cc1C(F)(F)F` (stereo not drawn) registered a melting point of 178 to 180 °C. In turn, `c1ccc(Cn2ccc3ccccc32)cc1` had a melting point of 43 to 45 °C.

Compound `CC(c1cc(C(C)(C)C#N)cc(C(C)(C)C#N)c1)n1ccnc1` (stereo not drawn) returned a melting point of 77 to 80 °C.

On to `CC(C)(C)c1cc(C(Cl)Cl)c(Cl)c(C(C)(C)C)c1O`, for which the melting point fell in the range of 176 to 177 °C.

As to `CNc1nc(-c2ccc(OC)cc2)c(-c2cccnc2)s1`, the melting point lay in the range of 158 to 159 °C. `CCc1nc(NC(=O)c2cc(Br)ccc2O)sc1-c1ccccc1` showed a melting point of 224 to 225 °C. Take `N#Cc1c(NCc2ccc(N)cc2)n[nH]c1N`: the melting point was in the range of 168 to 170 °C. The figure for `CCOC(=O)c1sc(C2=C(C)NC(C)=C(C(=O)OC)C2c2ccccc2[N+](=O)[O-])nc1C` (stereo not drawn) is 191 to 192 °C; for `NC(=O)N1CC(Oc2ccc(C(F)(F)F)cc2Cl)C1` it is 156 to 159 °C; for `COc1ccc(C2=C(c3ccc(S(C)(=O)=O)cc3)CCC2)cc1` it is 129 to 130 °C. Then `O=C(NCCOc1ccc(CC(Oc2ccc(-c3ccccn3)cc2)C(=O)O)cc1)c1ccc(-c2ccccn2)cc1` (stereo not drawn), with 98 to 101 °C; and `CSCCOc1ccc(OCC(O)CO)cc1` (stereo not drawn), with 59 to 61 °C. In turn, `C=C(C)C(=O)OCCCOc1cc(-n2nc3ccc(OC)cc3n2)c(O)c(C(C)(C)C)c1` gave a melting point of 114 to 116 °C. Consider `COc1cc(F)ccc1CCN1c2nc(-c3ccncn3)cc(=O)n2CCC1C` (stereo not drawn), for which the melting point lay within 148 to 150 °C.

Regarding `c1ccc2c(Sc3cccc4ccccc34)cccc2c1`, the melting point was in the range of 108 to 110 °C. As to `CCOC(=O)N1CC[C@H](NC(=O)c2cc(N)c(Cl)cc2OC)[C@H](OC)C1` (relative stereo), the melting point is 142 °C. In turn, `CCc1[nH]n(C2CCCC2)c2nc(-c3ccccc3C(F)(F)F)nc(=O)c1-2` returned a melting point of 201 to 202 °C.

`CC(C)c1nc(CCOC2=CCCCCCC2)n(C)c1Sc1cc(Cl)cc(Cl)c1`: the melting point lay within 73 to 74 °C. Then `CCOC(=O)c1cn(Cc2ccccc2OC)c2c(F)c(F)c(F)cc2c1=O`, with 203 to 204 °C; and `Cc1cc(SCc2sc(-c3ccc(C(F)(F)F)cc3)nc2C)c2c(c1OCC(=O)O)CCC2`, with 184 °C. On to `CC(C)Oc1ccc(CCCOc2cc(CCC(=O)O)n(C)n2)c(Oc2ncc(C(F)(F)F)cc2Cl)c1`, for which the melting point was in the range of 88 to 89 °C.

The compound `CCOC(=O)CC[C@H](NC(=O)c1ccc(C(C)=Cc2cnc3nc(N)nc(N)c3c2)cc1)C(=O)OCC` registered a melting point greater than 300 °C.

`NCc1cccc(Cn2ccc(OCc3ccc(F)cc3)c(Br)c2=O)c1` gave a melting point of 127 to 139 °C. The figure for `CCCCCCCCCCOc1cc(OCCCCCCCCCC)cc(N(CC(=O)O)CC(=O)OC)c1` is 61 to 62 °C; for `CCn1cc(C(=O)O)c(=O)c2cc(F)c(N3CCN(C)C(c4ccsc4)C3)cc21` (stereo not drawn) it is 226 to 228 °C; for `c1ccc(Cn2cnc3c(OC4CN5CCC4CC5)nccc32)cc1` (stereo not drawn) it is 162 to 183 °C. With `CCN1C(=O)C(C(=O)Nc2cccc(C(=O)Nc3ccccc3)c2)c2cc(C(=O)C3CCCC3)ccc21` (stereo not drawn), the melting point lay within 208 to 213 °C. `Ic1nnnn1C1CCCC1`: the melting point was determined as 119 °C. `CCN1CCN(CC)c2cc(Nc3nc(Cl)ncc3Cl)ccc2C1` gave a melting point of 69 to 73 °C. `CON=C(c1ncno1)c1ccccc1COc1ccc(Cl)cc1` displayed a melting point of 96 to 97.5 °C.

`CCN(CC)S(=O)(=O)N1CCNC1=O`: the melting point was 80 to 82 °C. The compound `Cn1c(=O)c(Oc2ccccc2F)cc2cnc(N)nc21` came in with a melting point of 241 to 243 °C.

The compound `CO[C@@H](Cc1ccc(OCCc2nc(-c3cc(C)cc(C)c3)oc2C)c2ccccc12)C(=O)O` displayed a melting point of 197 to 198 °C. With `CN1CCN(c2ccccc2C(O)C2SCCNC2=O)CC1` (stereo not drawn), the melting point fell in the range of 137 to 139 °C.

For `Clc1cnc(Oc2cccc(C=C(Br)Br)c2)nc1`, the melting point was found to be 68 °C. `CC1(C)CCC(C)(C)c2cc(-c3cc(-c4ccc(C(=O)O)cc4)ccc3O)ccc21` yielded a melting point of 240 to 241 °C. Consider `CC(=O)n1nc(CBr)c(Oc2cc(Cl)cc(Cl)c2)c1C`, for which the melting point fell in the range of 111 to 113 °C. As for `CNc1cc(CO)cc(S(N)(=O)=O)c1Oc1ccccc1`, the melting point fell in the range of 167 to 168 °C.

In the case of `Cc1sc2nc3cccc(C)c3c(=O)n2c1C`, the melting point fell in the range of 278 to 280 °C. `CS(=O)(=O)Nc1ccc(NCC2CCNCC2)c(C(=O)Nc2ccc(Cl)cn2)c1` displayed a melting point of 223 to 226 °C.

On to `CCOC(=O)Cc1c(Cl)nc(-c2ccccc2)n1Cc1ccccc1`, for which the melting point is 72 to 73 °C.

For `CCOC(=O)c1c(CC(=O)O)n(-c2ccc(OC(C)C)cc2)c2ccc(Oc3ncccc3C(N)=O)cc12`, the melting point was in the range of 210 to 212 °C. The figure for `CC(C)(C)OC(=O)NCCN(O)C(N)=O` is 144 to 146 °C; for `CC(CO)Oc1ccc(CNc2ccc(Cl)cc2)cc1` (stereo not drawn) it is 81 to 83 °C. In the case of `O=C1c2ccc(Sc3ccc4c(c3)C(=O)N(c3ccccc3)C4=O)cc2C(=O)N1c1ccccc1`, the melting point is 275 to 280 °C. On to `O=C(C=Cc1ccccc1)Nc1ccccc1NC(=O)C=Cc1ccccc1`, for which the melting point was found to be 212 °C. `Nc1cccc2c1CCCCC2` returned a melting point of 107 to 111 °C. Consider `C=C1CCc2[nH]c3c(c2C1=O)CCC3`, for which the melting point lay within 214 to 215 °C. For the compound `O=S(=O)(Nc1ccc2[nH]c3c(c2c1)CCNC3)c1c(Cl)nc2sccn12`, the melting point was in the range of 242 to 244 °C.

Compound `O=c1[nH]c2ncc(-c3ccc(-c4nnc[nH]4)cc3)nc2n1CC1CCOCC1` returned a melting point of 342 to 345 °C. `C[C@@H]1C(=O)C[C@H]2C[C@@H]1OO[C@@]2(C)/C=C\c1ccc(C#N)cc1` displayed a melting point of 125 °C. Then `O=C1COc2c(cc(Cl)cc2C(=O)NC2CCN(Cc3ccccc3)CC2)N1`, with 203 to 206 °C; and `Cc1nc(-c2cn(Cc3ccc(C(F)(F)F)cc3)nn2)sc1C(=O)NCc1cccnc1`, with 204 to 205 °C; and `N#Cc1c(N)oc2c1c(Cc1ccccc1)c(O)c1ccccc12`, with 224 to 225 °C.

With `O=C(O)C1C(C=C(Cl)Cl)C12CCCC2` (stereo not drawn), the melting point fell in the range of 90 to 105 °C. On to `CCCCc1ncc(/C=C(\Cc2cccs2)c2nnn[nH]2)n1Cc1ccc(-c2nnn[nH]2)cc1`, for which the melting point lay in the range of 227 to 230 °C. For the compound `COC(=O)c1csc(NC(=O)[C@H](CC2CCCC2)c2ccc(Cl)c(Cl)c2)n1`, the melting point is 143 to 144 °C. Take `Cc1cc(C)c(NC(=O)CN2CCN(CCSc3nc4ccccc4o3)CC2)c(C)n1`: the melting point lay in the range of 159 to 160 °C. For `Cc1ccc(OC(C)(C)C=O)c(C#N)c1`, the melting point is 60 to 64 °C. The figure for `CSc1cc(C)nc(SC)c1NC(=O)CCCCCCCSc1nc2cccc(C(F)(F)F)c2o1` is 115 to 116 °C. In the case of `CN(C(=O)c1ccc(Nc2nccc(Nc3ccc(C(F)(F)F)cc3)n2)cc1)C1CCOCC1`, the melting point lay within 254 to 256 °C. `CCCOC(=O)c1sccc1S(N)(=O)=O` had a melting point of 79 °C. On to `CC(=NO)c1cc2c(s1)CCCN(CCCCN1CCN(c3ncccn3)CC1)C2=O`, for which the melting point lay in the range of 144 to 146 °C. `O=C(Nc1ccc(Cl)c(Cl)c1)NS(=O)(=O)c1ccc(Cl)cc1` yielded a melting point of 195 to 196 °C. `COc1cccc2c1CCCC2=NNc1nc(-c2ccc(F)cc2)cs1` had a melting point of 198 °C.

`CCCCNc1c(C(=O)OCC)cnc2onc(C)c12` returned a melting point of 60 °C. `CCOC(=O)CC1Nc2ccccc2CC(N)C1=O` (stereo not drawn) registered a melting point of 71 to 73 °C.

With `O=C(CN1CCCC1)c1ccc(F)cc1`, the melting point lay within 49 to 50 °C. `CCCc1c(OCC(O)CNc2cccc(N)c2C#N)ccc(C(C)=O)c1O` (stereo not drawn): the melting point fell in the range of 111 to 114 °C.

`CCCCOc1c(CN2C(=O)c3ccccc3C2=O)n(CC(C)(C)C)c(=O)c2cc(F)ccc12` came in with a melting point of 155 to 156 °C. `NC(=O)C1=C(C(=O)Nc2ccc(Cl)cc2F)CCCC1`: the melting point is 150 to 151 °C. In turn, `Nc1cccc2c(Br)cccc12` had a melting point of 65 to 66 °C. In turn, `Cc1cc(C)n2nc(NS(=O)(=O)c3cc(Cl)ccc3Cl)nc2n1` gave a melting point of 216 to 218 °C.

`NNC(=O)c1ccc(OC(F)(F)C(F)(F)F)cc1` displayed a melting point of 117 to 120 °C. `Cc1ccc(-c2nc(OC(C)C)c(Br)c(OC(C)C)n2)cc1` showed a melting point of 74 to 75 °C. The figure for `O=C1C(Cc2ccccc2)C(c2ccccc2)Nc2ccccc2N1Cc1ccccc1` (stereo not drawn) is 149 to 150 °C.

As to `Cc1cc(-n2ccc(OCc3ccccc3)cc2=O)sc1C(=O)NCc1ccccc1`, the melting point lay within 153 to 154 °C.

Turning to `COc1c(Cl)ccc(-c2cc(N)c(Cl)c(C(=O)NOCC(C)C)n2)c1F`, the melting point lay in the range of 145 to 148 °C. Consider `COc1c(NC(=O)Nc2ccc(Oc3ccoc(=O)c3)c3ccccc23)cc(C(C)(C)C)cc1NS(C)(=O)=O`, for which the melting point was in the range of 185 to 187 °C. Compound `Nc1nc2c(s1)CCN(CC=Cc1ccccc1Br)CC2` displayed a melting point of 103 to 106 °C.

For the compound `NC(=S)NC[C@H]1CN(c2ccc(N3CCN(C(=O)CO)CC3)c(F)c2)C(=O)O1`, the melting point was in the range of 209 to 210 °C.

As for `COc1ccc(S(=O)(=O)Nc2ccc(CCCC(=O)O)nc2)cc1`, the melting point lay within 129 to 130 °C. Compound `O=C1CCN(C2c3ccccc3COc3ccc(Br)cc32)CC1` (stereo not drawn) returned a melting point of 196 to 200 °C. On to `Cc1cc(OCc2coc(C=Cc3ccc(OC(F)(F)F)cc3)n2)ccc1COCCn1ccnn1`, for which the melting point lay within 84 to 85 °C. In turn, `COc1ccc2c(c1)CCC(=O)N(C(C)=O)CCCC2=O` gave a melting point of 156 to 158 °C.

The values above are taken from a melting point compilation (Tetko et al.; mined from patent text by program, amines drawn as free bases though some values may be those of a salt).
